Data taken from the supplement of paper PMC4862054.

What follows are compounds tested on HCC1143 (assay: normalised response (% of control), CellTox Green; higher = less cell death (100 = DMSO, 0 = benzethonium chloride kill control)). Settings: incubation time: 72 h.
Method in brief: (§1)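 Normalised signals at single concentrations make up the values. They come from breast cancer cell lines seeded (20 µl suspension) into 384-well plates with compound at 5 concentrations in 10-fold steps over a compound-specific 10,000-fold range, incubated 72 h, and read for CellTox Green fluorescence then CellTiter-Glo luminescence. Each plate was normalised to 0.1 % DMSO (100) and a positive kill control (0).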
For `CC/C(=C(\c1ccc(O)cc1)c1ccc(OCCN(C)C)cc1)c1ccccc1` [4-hydroxytamoxifen] (1000 nM), the normalised response was 88.3%.
Compound `O=C(Nc1c[nH]nc1-c1nc2ccc(CN3CCOCC3)cc2[nH]1)NC1CC1` [AT9283] (100 nM) has a normalised response of 101%.
Compound `CC(=O)OC[C@H]1O[C@@H]([S-])[C@H](OC(C)=O)[C@@H](OC(C)=O)[C@@H]1OC(C)=O.CCP(CC)CC.[Au+]` [Auranofin] (250 nM) has a normalised response of 123%.
`O=S(=O)(c1cccc2cnccc12)N1CCCNCC1` [Fasudil] (5000 nM) was tested, and the normalised response was 98.9%.
With `Cc1cccc(-c2nn3c(c2-c2ccnc4ccc(C(N)=O)cc24)CCC3)n1` [Galunisertib] (100 nM) the normalised response was 112%.
Compound `O=C(NC[C@H](O)CO)c1ccncc1Nc1ccc(I)cc1F` [Pimasertib] (1000 nM) has a normalised response of 89.5%.
`Cn1cc(CNCC2CCN(c3ncc(C(=O)NO)cn3)CC2)c2ccccc21` [Quisinostat] (100 nM) was tested, and the normalised response was 86.2%.

The compounds below were run on HDQ-P1 in the same assay as above. Settings: incubation time: 72 h.
Method in brief: as §1
Compound `CC/C(=C(\c1ccc(O)cc1)c1ccc(OCCN(C)C)cc1)c1ccccc1` [4-hydroxytamoxifen] (1000 nM) has a normalised response of 97.3%.
For `O=C(Nc1c[nH]nc1-c1nc2ccc(CN3CCOCC3)cc2[nH]1)NC1CC1` [AT9283] (100 nM), the normalised response was 99.6%.
`CC(=O)OC[C@H]1O[C@@H]([S-])[C@H](OC(C)=O)[C@@H](OC(C)=O)[C@@H]1OC(C)=O.CCP(CC)CC.[Au+]` [Auranofin] (250 nM) showed a normalised response of 115%.
Compound `O=S(=O)(c1cccc2cnccc12)N1CCCNCC1` [Fasudil] (5000 nM) has a normalised response of 75.7%.
For `Cc1cccc(-c2nn3c(c2-c2ccnc4ccc(C(N)=O)cc24)CCC3)n1` [Galunisertib] (100 nM), the normalised response was 70.6%.
Work on `O=C(NC[C@H](O)CO)c1ccncc1Nc1ccc(I)cc1F` [Pimasertib] (1000 nM) yielded a normalised response of 77.2%.
Compound `Cn1cc(CNCC2CCN(c3ncc(C(=O)NO)cn3)CC2)c2ccccc21` [Quisinostat] (100 nM) has a normalised response of -19.4%.

These compounds were tested on CAL-85-1 in the same assay as above. Settings: incubation time: 72 h.
Method in brief: as §1
With `CC/C(=C(\c1ccc(O)cc1)c1ccc(OCCN(C)C)cc1)c1ccccc1` [4-hydroxytamoxifen] (1000 nM) the normalised response was 120%.
With `O=C(Nc1c[nH]nc1-c1nc2ccc(CN3CCOCC3)cc2[nH]1)NC1CC1` [AT9283] (100 nM) the normalised response was 84.6%.
In the case of `CC(=O)OC[C@H]1O[C@@H]([S-])[C@H](OC(C)=O)[C@@H](OC(C)=O)[C@@H]1OC(C)=O.CCP(CC)CC.[Au+]` [Auranofin] (250 nM), the normalised response is reported as 120%.
`O=S(=O)(c1cccc2cnccc12)N1CCCNCC1` [Fasudil] (5000 nM) showed a normalised response of 102%.
`Cc1cccc(-c2nn3c(c2-c2ccnc4ccc(C(N)=O)cc24)CCC3)n1` [Galunisertib] (100 nM) showed a normalised response of 102%.
`O=C(NC[C@H](O)CO)c1ccncc1Nc1ccc(I)cc1F` [Pimasertib] (1000 nM) was tested, and the normalised response was 67.4%.
For `Cn1cc(CNCC2CCN(c3ncc(C(=O)NO)cn3)CC2)c2ccccc21` [Quisinostat] (100 nM), the normalised response was -5.42%.

These compounds were tested on CAL-120 in the same assay as above. Settings: incubation time: 72 h.
Method in brief: as §1
In the case of `CC/C(=C(\c1ccc(O)cc1)c1ccc(OCCN(C)C)cc1)c1ccccc1` [4-hydroxytamoxifen] (1000 nM), the normalised response is reported as 108%.
`O=C(Nc1c[nH]nc1-c1nc2ccc(CN3CCOCC3)cc2[nH]1)NC1CC1` [AT9283] (100 nM) showed a normalised response of 84.9%.
Work on `CC(=O)OC[C@H]1O[C@@H]([S-])[C@H](OC(C)=O)[C@@H](OC(C)=O)[C@@H]1OC(C)=O.CCP(CC)CC.[Au+]` [Auranofin] (250 nM) yielded a normalised response of 107%.
`O=S(=O)(c1cccc2cnccc12)N1CCCNCC1` [Fasudil] (5000 nM) showed a normalised response of 94.5%.
Compound `Cc1cccc(-c2nn3c(c2-c2ccnc4ccc(C(N)=O)cc24)CCC3)n1` [Galunisertib] (100 nM) has a normalised response of 101%.
For `O=C(NC[C@H](O)CO)c1ccncc1Nc1ccc(I)cc1F` [Pimasertib] (1000 nM), the normalised response was 83.4%.
For `Cn1cc(CNCC2CCN(c3ncc(C(=O)NO)cn3)CC2)c2ccccc21` [Quisinostat] (100 nM), the normalised response was 34.5%.

The compounds below were run on BT-474 in the same assay as above. Settings: incubation time: 72 h.
Method in brief: as §1
In the case of `CC/C(=C(\c1ccc(O)cc1)c1ccc(OCCN(C)C)cc1)c1ccccc1` [4-hydroxytamoxifen] (1000 nM), the normalised response is reported as 97.7%.
In the case of `O=C(Nc1c[nH]nc1-c1nc2ccc(CN3CCOCC3)cc2[nH]1)NC1CC1` [AT9283] (100 nM), the normalised response is reported as 103%.
`CC(=O)OC[C@H]1O[C@@H]([S-])[C@H](OC(C)=O)[C@@H](OC(C)=O)[C@@H]1OC(C)=O.CCP(CC)CC.[Au+]` [Auranofin] (250 nM) gave a normalised response of 95.5%.
With `O=S(=O)(c1cccc2cnccc12)N1CCCNCC1` [Fasudil] (5000 nM) the normalised response was 97.1%.
